According to PubChem BioAssay AID1259407 (Chemical Carcinogenesis Research Information System (CCRIS), 2018):
Activity calls are given as the source filed them. No rule for the calls is given here.

System: CCRIS mutagenicity, Ames/micronucleus/aberration tests
Test: CCRIS mutagenicity studies
[1] = Test System: AMES SALMONELLA TYPHIMURIUM, Strain/Indicator: TA98, Metabolic Activation: NONE, Method: STANDARD PLATE
[2] = Test System: AMES SALMONELLA TYPHIMURIUM, Strain/Indicator: TA100, Metabolic Activation: NONE, Method: STANDARD PLATE
[3] = Test System: AMES SALMONELLA TYPHIMURIUM, Strain/Indicator: TA1537, Metabolic Activation: NONE, Method: STANDARD PLATE
[4] = Test System: AMES SALMONELLA TYPHIMURIUM, Strain/Indicator: TA1538, Metabolic Activation: NONE, Method: STANDARD PLATE
[5] = Test System: AMES SALMONELLA TYPHIMURIUM, Strain/Indicator: TA98, Metabolic Activation: RAT, LIVER, S-9, AROCLOR 1254, Method: STANDARD PLATE
[6] = Test System: AMES SALMONELLA TYPHIMURIUM, Strain/Indicator: TA100, Metabolic Activation: RAT, LIVER, S-9, AROCLOR 1254, Method: STANDARD PLATE
[7] = Test System: AMES SALMONELLA TYPHIMURIUM, Strain/Indicator: TA98, Metabolic Activation: NONE, Method: PREINCUBATION
[8] = Test System: AMES SALMONELLA TYPHIMURIUM, Strain/Indicator: TA100, Metabolic Activation: NONE, Method: PREINCUBATION

For `Nc1ccc2[nH]c3ccccc3c2c1`, which mutagenic call [1] is on record?
Its mutagenic call is “inactive; negative”.

What about the mutagenic call (Test System: AMES SALMONELLA TYPHIMURIUM, Strain/Indicator: TA98, Metabolic Activation: RAT LIVER S-9, AROCLOR 1254, Method: STANDARD PLATE) of the same compound?
The mutagenic call was “active; positive”.

What about the mutagenic call (Test System: AMES SALMONELLA TYPHIMURIUM, Strain/Indicator: TA98, Metabolic Activation: RAT, LIVER, S-9, PHENOBARBITAL, Method: STANDARD PLATE) of the same compound?
The mutagenic call was “active; positive”.

What about the mutagenic call [2] of the same compound?
The mutagenic call was “inactive; negative”.

And the mutagenic call (Test System: AMES SALMONELLA TYPHIMURIUM, Strain/Indicator: TA100, Metabolic Activation: RAT LIVER S-9, AROCLOR 1254, Method: STANDARD PLATE)?
Its mutagenic call is “inactive; negative”.

And the mutagenic call (Test System: AMES SALMONELLA TYPHIMURIUM, Strain/Indicator: TA100, Metabolic Activation: RAT, LIVER, S-9, PHENOBARBITAL, Method: STANDARD PLATE)?
The mutagenic call was “inactive; negative”.

And the mutagenic call [3]?
The mutagenic call was “inactive; negative”.

And the mutagenic call (Test System: AMES SALMONELLA TYPHIMURIUM, Strain/Indicator: TA1537, Metabolic Activation: RAT, LIVER, S-9, PHENOBARBITAL, Method: STANDARD PLATE)?
The mutagenic call was “inactive; negative”.

What about the mutagenic call [4] of the same compound?
The mutagenic call was “inactive; negative”.

And the mutagenic call (Test System: AMES SALMONELLA TYPHIMURIUM, Strain/Indicator: TA1538, Metabolic Activation: RAT, LIVER, S-9, PHENOBARBITAL, Method: STANDARD PLATE)?
Its mutagenic call is “active; positive”.

And the mutagenic call (Test System: AMES SALMONELLA TYPHIMURIUM, Strain/Indicator: TA1977, Metabolic Activation: NONE, Method: STANDARD PLATE)?
Its mutagenic call is “inactive; negative”.

What about the mutagenic call (Test System: AMES SALMONELLA TYPHIMURIUM, Strain/Indicator: TA1977, Metabolic Activation: RAT, LIVER, S-9, PHENOBARBITAL, Method: STANDARD PLATE) of the same compound?
Its mutagenic call is “inactive; negative”.

Which mutagenic call (Test System: AMES SALMONELLA TYPHIMURIUM, Strain/Indicator: TA97, Metabolic Activation: NONE, Method: STANDARD PLATE) does the source give for `O=C1CCC(N2C(=O)c3ccccc3C2=O)C(=O)N1` (centres undefined) here?
The mutagenic call was “inactive; negative”.

And the mutagenic call (Test System: AMES SALMONELLA TYPHIMURIUM, Strain/Indicator: TA97, Metabolic Activation: RAT, LIVER, S-9, AROCLOR 1254, Method: STANDARD PLATE)?
Its mutagenic call is “inactive; negative”.

What about the mutagenic call [1] of the same compound?
The mutagenic call was “inactive; negative”.

And the mutagenic call (Test System: AMES SALMONELLA TYPHIMURIUM, Strain/Indicator: TA98, Metabolic Activation: RAT, LIVER, S-9, AROCLOR 1254 (4, 10 OR 30%), Method: PREINCUBATION)?
The mutagenic call was “inactive; negative”.

What about the mutagenic call [5] of the same compound?
The mutagenic call was “inactive; negative”.

And the mutagenic call [2]?
Its mutagenic call is “inactive; negative”.

And the mutagenic call (Test System: AMES SALMONELLA TYPHIMURIUM, Strain/Indicator: TA100, Metabolic Activation: RAT, LIVER, S-9, AROCLOR 1254 (10%), Method: PREINCUBATION)?
The mutagenic call was “inactive; negative”.

What about the mutagenic call [6] of the same compound?
The mutagenic call was “inactive; negative”.

And the mutagenic call (Test System: AMES SALMONELLA TYPHIMURIUM, Strain/Indicator: TA1535, Metabolic Activation: NONE, Method: STANDARD PLATE)?
Its mutagenic call is “inactive; negative”.

And the mutagenic call (Test System: AMES SALMONELLA TYPHIMURIUM, Strain/Indicator: TA1535, Metabolic Activation: RAT, LIVER, S-9, AROCLOR 1254, Method: STANDARD PLATE)?
The mutagenic call was “inactive; negative”.

What about the mutagenic call [3] of the same compound?
Its mutagenic call is “inactive; negative”.

What about the mutagenic call (Test System: AMES SALMONELLA TYPHIMURIUM, Strain/Indicator: TA1537, Metabolic Activation: RAT, LIVER, S-9, AROCLOR 1254, Method: STANDARD PLATE) of the same compound?
Its mutagenic call is “inactive; negative”.

And the mutagenic call [4]?
Its mutagenic call is “inactive; negative”.

What about the mutagenic call (Test System: AMES SALMONELLA TYPHIMURIUM, Strain/Indicator: TA1538, Metabolic Activation: RAT, LIVER, S-9, AROCLOR 1254, Method: STANDARD PLATE) of the same compound?
Its mutagenic call is “inactive; negative”.

And the mutagenic call (Test System: MOUSE LYMPHOMA, Strain/Indicator: L5178Y (TK+/TK-), Metabolic Activation: NONE, Method: MICROWELL)?
Its mutagenic call is “inactive; negative”.

And the mutagenic call (Test System: MOUSE LYMPHOMA, Strain/Indicator: L5178Y (TK+/TK-), Metabolic Activation: RAT, LIVER, S-9, PHENOBARBITAL AND BETA-NAPHTHOFLAVONE, Method: MICROWELL)?
Its mutagenic call is “inactive; negative”.

For `COc1ccc2c3c(cccc13)OC([N+](=O)[O-])=C2`, which mutagenic call [1] is on record?
Its mutagenic call is “inactive; negative”.

What about the mutagenic call (Test System: AMES SALMONELLA TYPHIMURIUM, Strain/Indicator: TA98, Metabolic Activation: S-9, Method: STANDARD PLATE) of the same compound?
The mutagenic call was “inactive; negative”.

And the mutagenic call [2]?
The mutagenic call was “active; positive”.

What about the mutagenic call (Test System: AMES SALMONELLA TYPHIMURIUM, Strain/Indicator: TA100, Metabolic Activation: S-9, Method: STANDARD PLATE) of the same compound?
Its mutagenic call is “inactive; negative”.

Which results are given for `CCCCCCCC(O)C=CC=O` (centres undefined)?
mutagenic call (End Point: IN VITRO CHROMOSOMAL ABERRATIONS, Test System: RAT HEPATOCYTES, Metabolic Activation: NONE): active; positive; mutagenic call (End Point: IN VITRO MICRONUCLEUS, Test System: RAT HEPATOCYTES, Metabolic Activation: NONE): inactive; negative

With `O=[N+]([O-])c1cc2c3c(ccc4cccc(c43)CC2)c1` as the compound, how does the mutagenic call (Test System: AMES SALMONELLA TYPHIMURIUM, Strain/Indicator: TA98(1,8-DNP6), Metabolic Activation: NONE, Method: STANDARD PLATE) read?
The mutagenic call was “active; positive”.

What about the mutagenic call (Test System: AMES SALMONELLA TYPHIMURIUM, Strain/Indicator: TA98(NR), Metabolic Activation: NONE, Method: STANDARD PLATE) of the same compound?
Its mutagenic call is “active; positive”.

What about the mutagenic call [1] of the same compound?
The mutagenic call was “active; positive”.

For `Clc1cccc2ccccc12`, which mutagenic call (Test System: AMES SALMONELLA TYPHIMURIUM, Strain/Indicator: TA97, Metabolic Activation: HAMSTER, LIVER, S-9, AROCLOR 1254 (10%), Method: PREINCUBATION) is on record?
Its mutagenic call is “inactive; negative”.

What about the mutagenic call (Test System: AMES SALMONELLA TYPHIMURIUM, Strain/Indicator: TA97, Metabolic Activation: HAMSTER, LIVER, S-9, AROCLOR 1254 (30%), Method: PREINCUBATION) of the same compound?
The mutagenic call was “active; positive”.

And the mutagenic call (Test System: AMES SALMONELLA TYPHIMURIUM, Strain/Indicator: TA97, Metabolic Activation: NONE, Method: PREINCUBATION)?
Its mutagenic call is “inactive; negative”.

And the mutagenic call (Test System: AMES SALMONELLA TYPHIMURIUM, Strain/Indicator: TA97, Metabolic Activation: RAT, LIVER, S-9, AROCLOR 1254 (30%), Method: PREINCUBATION)?
The mutagenic call was “inactive; negative”.

What about the mutagenic call (Test System: AMES SALMONELLA TYPHIMURIUM, Strain/Indicator: TA98, Metabolic Activation: HAMSTER, LIVER, S-9, AROCLOR 1254 (30%), Method: PREINCUBATION) of the same compound?
Its mutagenic call is “inactive; negative”.

What about the mutagenic call [7] of the same compound?
Its mutagenic call is “inactive; negative”.

What about the mutagenic call [1] of the same compound?
Its mutagenic call is “inactive; negative”.

What about the mutagenic call (Test System: AMES SALMONELLA TYPHIMURIUM, Strain/Indicator: TA98, Metabolic Activation: RAT, LIVER, S-9, AROCLOR 1254 (30%), Method: PREINCUBATION) of the same compound?
The mutagenic call was “inactive; negative”.

What about the mutagenic call [5] of the same compound?
Its mutagenic call is “inactive; negative”.

What about the mutagenic call (Test System: AMES SALMONELLA TYPHIMURIUM, Strain/Indicator: TA100, Metabolic Activation: HAMSTER, LIVER, S-9, AROCLOR 1254 (10%), Method: PREINCUBATION) of the same compound?
Its mutagenic call is “inactive; negative”.

What about the mutagenic call (Test System: AMES SALMONELLA TYPHIMURIUM, Strain/Indicator: TA100, Metabolic Activation: HAMSTER, LIVER, S-9, AROCLOR 1254 (30%), Method: PREINCUBATION) of the same compound?
The mutagenic call was “active; positive”.

What about the mutagenic call [8] of the same compound?
The mutagenic call was “inactive; negative”.

And the mutagenic call [2]?
Its mutagenic call is “inactive; negative”.

What about the mutagenic call (Test System: AMES SALMONELLA TYPHIMURIUM, Strain/Indicator: TA100, Metabolic Activation: RAT, LIVER, S-9, AROCLOR 1254 (10 OR 30%), Method: PREINCUBATION) of the same compound?
Its mutagenic call is “inactive; negative”.

And the mutagenic call [6]?
The mutagenic call was “inactive; negative”.

And the mutagenic call (Test System: AMES SALMONELLA TYPHIMURIUM, Strain/Indicator: TA1535, Metabolic Activation: HAMSTER, LIVER, S-9, AROCLOR 1254 (10 OR 30%), Method: PREINCUBATION)?
Its mutagenic call is “inactive; negative”.

And the mutagenic call (Test System: AMES SALMONELLA TYPHIMURIUM, Strain/Indicator: TA1535, Metabolic Activation: NONE, Method: PREINCUBATION)?
Its mutagenic call is “inactive; negative”.

And the mutagenic call (Test System: AMES SALMONELLA TYPHIMURIUM, Strain/Indicator: TA1535, Metabolic Activation: RAT, LIVER, S-9, AROCLOR 1254 (30%), Method: PREINCUBATION)?
The mutagenic call was “inactive; negative”.

With `Clc1nncc2cnccc12` as the compound, how does the mutagenic call [7] read?
The mutagenic call was “inactive; negative”.

What about the mutagenic call (Test System: AMES SALMONELLA TYPHIMURIUM, Strain/Indicator: TA98, Metabolic Activation: RAT, LIVER, S-9, PCB, Method: PREINCUBATION) of the same compound?
Its mutagenic call is “inactive; negative”.

What about the mutagenic call [8] of the same compound?
The mutagenic call was “inactive; negative”.

And the mutagenic call (Test System: AMES SALMONELLA TYPHIMURIUM, Strain/Indicator: TA100, Metabolic Activation: RAT, LIVER, S-9, PCB, Method: PREINCUBATION)?
Its mutagenic call is “inactive; negative”.
